Test results taken from PubChem BioAssay AID1845210 (Molecular Pharmacology Branch, DTP, NCI, 2023).
Several values for one entry are separate records, joined by “and”; a condition that tells them apart may be missing. Identical values can stand only once.

Tested on: NCI-H226 complex tumor spheroids, viability
Assay: Anticancer human tumor NCI-H226 cell line growth inhibition;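 also: spheroids exposed to compound for 7 days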;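 as to viability, T/C: 100% = DMSO vehicle control viability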
Conditions: for viability, T/C: stronger effect = lower value
Summary of the method: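 Complex tumor spheroids combined malignant cells with endothelial cells and mesenchymal stem cells. DNA-damaging drugs and DNA repair inhibitors were tested alone and in combination, at half-log dilutions down from clinical Cmax (top 10 microM if Cmax unknown), 0.25% DMSO final.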

[1] = curve of first compound, second compound 0.003 µM
[2] = second compound 0.003 µM, first compound 0.0316 µM
[3] = second compound 0.003 µM, first compound 0.1 µM
[4] = second compound 0.003 µM, first compound 0.316 µM
[5] = second compound 0.003 µM, first compound 1 µM
[6] = second compound 0.003 µM, first compound 3.16 µM
[7] = second compound 0.003 µM, first compound 10 µM

`CC1COCCN1c1cc(-c2ccnn2C)c2ccnc(-c3ccn[nH]3)c2n1` (configuration not stated) + COc1cc2c(cc1O)CCNC21CSC2c3c(OC(C)=O)c(C)c4c(c3C(COC1=O)N1C(O)C3Cc5cc(C)c(OC)c(O)c5C(C21)N3C)OCO4 was tested, and the IC50 (curve of first compound, second compound 30 pM) was 3120 nM, the IC50 (curve of first compound, second compound 94.9 pM) was > 10000 nM and the IC50 (curve of first compound, second compound 0.0003 µM) was > 10000 nM. For the same compound, the IC50 (curve of first compound, second compound 0.000949 µM) was 3650 nM, the IC50 [1] was < 31.6 nM and the viability, T/C (second compound 30 pM, first compound 0.0316 µM) was 120%. The viability, T/C (second compound 30 pM, first compound 0.1 µM) was 108%, the viability, T/C (second compound 30 pM, first compound 0.316 µM) was 89.1% and the viability, T/C (second compound 30 pM, first compound 1 µM) was 61.3%. For the same compound, the viability, T/C (second compound 30 pM, first compound 3.16 µM) was 50.9%, the viability, T/C (second compound 30 pM, first compound 10 µM) was 45.2% and the viability, T/C (second compound 94.9 pM, first compound 0.0316 µM) was 106%. The viability, T/C (second compound 94.9 pM, first compound 0.1 µM) was 112%, the viability, T/C (second compound 94.9 pM, first compound 0.316 µM) was 80% and the viability, T/C (second compound 94.9 pM, first compound 1 µM) was 62.1%. For the same compound, the viability, T/C (second compound 94.9 pM, first compound 3.16 µM) was 53.5%, the viability, T/C (second compound 94.9 pM, first compound 10 µM) was 50.4% and the viability, T/C (second compound 0.0003 µM, first compound 0.0316 µM) was 109%. The viability, T/C (second compound 0.0003 µM, first compound 0.1 µM) was 108%, the viability, T/C (second compound 0.0003 µM, first compound 0.316 µM) was 98.9% and the viability, T/C (second compound 0.0003 µM, first compound 1 µM) was 71.3%. It also gave a viability, T/C (second compound 0.0003 µM, first compound 3.16 µM) of 57.8%, a viability, T/C (second compound 0.0003 µM, first compound 10 µM) of 56.7% and a viability, T/C (second compound 0.000949 µM, first compound 0.0316 µM) of 126%. For the same compound, the viability, T/C (second compound 0.000949 µM, first compound 0.1 µM) was 102%, the viability, T/C (second compound 0.000949 µM, first compound 0.316 µM) was 90.6% and the viability, T/C (second compound 0.000949 µM, first compound 1 µM) was 58.8%. For the same compound, the viability, T/C (second compound 0.000949 µM, first compound 3.16 µM) was 53%, the viability, T/C (second compound 0.000949 µM, first compound 10 µM) was 43.5% and the viability, T/C [2] was 1.51%. It also gave a viability, T/C [3] of 1.41%, a viability, T/C [4] of 1.32% and a viability, T/C [5] of 0.82%. For the same compound, the viability, T/C [6] was 0.74% and the viability, T/C [7] was 0.49%.

Work on `CC1COCCN1c1cc(-c2ccnn2C)c2ccnc(-c3ccn[nH]3)c2n1` (configuration not stated) + CC[C@@]1(O)C(=O)OCc2c1cc1n(c2=O)Cc2cc3c(CN(C)C)c(O)ccc3nc2-1 yielded an IC50 [1] of 1040 nM, an IC50 (curve of first compound, second compound 0.00949 µM) of 1090 nM and an IC50 (curve of first compound, second compound 0.03 µM) of 823 nM. It also gave an IC50 (curve of first compound, second compound 0.0949 µM) of 814 nM, an IC50 (curve of first compound, second compound 0.3 µM) of 518 nM and a viability, T/C [2] of 97.2%. For the same compound, the viability, T/C [3] was 81.5%, the viability, T/C [4] was 74% and the viability, T/C [5] was 47.6%. For the same compound, the viability, T/C [6] was 39.2%, the viability, T/C [7] was 36.1% and the viability, T/C (second compound 0.00949 µM, first compound 0.0316 µM) was 93.8%. The viability, T/C (second compound 0.00949 µM, first compound 0.1 µM) was 85.1%, the viability, T/C (second compound 0.00949 µM, first compound 0.316 µM) was 69.3% and the viability, T/C (second compound 0.00949 µM, first compound 1 µM) was 52.5%. The viability, T/C (second compound 0.00949 µM, first compound 3.16 µM) was 36.1%, the viability, T/C (second compound 0.00949 µM, first compound 10 µM) was 33.4% and the viability, T/C (second compound 0.03 µM, first compound 0.0316 µM) was 83.1%. For the same compound, the viability, T/C (second compound 0.03 µM, first compound 0.1 µM) was 76.3%, the viability, T/C (second compound 0.03 µM, first compound 0.316 µM) was 63.6% and the viability, T/C (second compound 0.03 µM, first compound 1 µM) was 48.1%. It also gave a viability, T/C (second compound 0.03 µM, first compound 3.16 µM) of 36.8%, a viability, T/C (second compound 0.03 µM, first compound 10 µM) of 37.9% and a viability, T/C (second compound 0.0949 µM, first compound 0.0316 µM) of 82.2%. It also gave a viability, T/C (second compound 0.0949 µM, first compound 0.1 µM) of 71.3%, a viability, T/C (second compound 0.0949 µM, first compound 0.316 µM) of 65.1% and a viability, T/C (second compound 0.0949 µM, first compound 1 µM) of 46.1%. For the same compound, the viability, T/C (second compound 0.0949 µM, first compound 3.16 µM) was 37.4%, the viability, T/C (second compound 0.0949 µM, first compound 10 µM) was 34.9% and the viability, T/C (second compound 0.3 µM, first compound 0.0316 µM) was 71.2%. It also gave a viability, T/C (second compound 0.3 µM, first compound 0.1 µM) of 66.9%, a viability, T/C (second compound 0.3 µM, first compound 0.316 µM) of 56.8% and a viability, T/C (second compound 0.3 µM, first compound 1 µM) of 41.4%. For the same compound, the viability, T/C (second compound 0.3 µM, first compound 3.16 µM) was 36.3% and the viability, T/C (second compound 0.3 µM, first compound 10 µM) was 38.1%.

With `CNCc1ccc(-c2cc(-c3nc(-c4ccc(S(=O)(=O)C(C)C)cc4)cnc3N)on2)cc1` the viability, T/C (compound 0.00949 µM) was 109% and 97.8% and 83.3%, the viability, T/C (compound 0.03 µM) was 126% and 123% and 90.1% and the viability, T/C (compound 0.0949 µM) was 132% and 112% and 106%. The viability, T/C (compound 0.3 µM) was 124% and 127% and 118%, the viability, T/C (compound 0.949 µM) was 20% and 109% (2×) and the viability, T/C (compound 3 µM) was 0.4% and 2.72% and 0.64%. For the same compound, the IC50 (curve of compound) was 678 nM and 1800 nM and 1710 nM.
